Data: patent publication US20250206722A1, “SMALL MOLECULE INHIBITORS OF TEA DOMAIN FAMILY MEMBERS” (The Scripps Research Institute, priority 2022, published 2025)

What was measured:
[1] = system: transcriptional activity of TEADs; test: TEAD reporter assay (MCF7 TEAD-LUC reporter cells); type: cell-based; details: Homo sapiens, 24 hours, BrightGlo luminescence
Experimental: MCF7 TEAD-LUC reporter cells were obtained from BPS Bioscience, Inc. and cultured in DMEM medium (Corning, 10-013-CV) supplemented with 10% fetal bovine serum (Gibco, 10438-026), 1% penicillin-streptomycin (Gibco, 15070063), 1% non-essential amino acids (Gibco, 15070063), and 10 μg/mL insulin (Sigma, 10516). Cells were trypsinized, resuspended in growth medium, and diluted to a concentrated of 100,000 cells/mL. 5,000 cells, 50 μL of cell suspension, per well were then plated in a white 384-well plate (Corning) and incubated at 37° C., 5% CO2. After 24 hours incubation, 100 nL of test compounds in DMSO, 20-point 1:2 dilution starting from 20 μM (final concentration) in triplicate, were transferred to each well using an Agilent Bravo instrument outfitted with a pintool head. Cells were incubated at 37° C., 5% CO2 for 24 hours followed by the addition of 30 μL of BrightGlo (Promega; diluted 1:3 in water) to each well and luminescence values recorded using an EnVision plate reader.
The in vitro assay results of the compounds in the present invention were included in Table 1. The compounds described herein, inhibited the transcriptional activity of TEADs, as assessed by decreased luminance from a TEAD reporter cell line (MCF7 TEAD-LUC) in response to compound treatment.

[2] = system: NCI-H226 cells; test: NCI-H226 proliferation assay (in house); type: cell-based; details: Homo sapiens, 120 h, 5 days, Cell TiterGlo, 20-point 1:2 dilution from 20 μM
Experimental: NCI-H226 Proliferation Assay
NCI-H226 cells were obtained from American Type Culture Collection (ATCC, CRL-5826) and cultured in RPMI 1640 with L-glutamine (Corning, 10-040-CV) supplemented with 10% fetal bovine serum (Gibco, 10438-026) and 1% penicillin-streptomycin (Gibco, 15070063). Cells were trypsinized, resuspended in growth medium, and diluted to a concentrated of 10,000 cells/mL. 500 cells, 50 μL of cell suspension, per well were then plated in a white 384-well plate (Corning) and incubated at 37° C., 5% CO2. After 24 hours incubation, 100 nL of test compounds in DMSO, 20-point 1:2 dilution starting from 20 μM (final concentration) in triplicate, were transferred to each well using an Agilent Bravo instrument outfitted with a pintool head. Cells were incubated at 37° C., 5% CO2 for 5 days followed by the addition of 30 μL of Cell TiterGlo (Promega; diluted 1:6 in water) to each well and luminescence values recorded using an EnVision plate reader. […]

Row | Structure (SMILES) | IC50 [1] [µM] | IC50 [2] [µM]
1 | C=C(F)C(=O)N1CC=C(c2cccnc2Nc2ccc(C(F)(F)F)nc2)CC1 [Example 146, 2-fluoro-1-(2-((6-(trifluoromethyl)pyridin-3-yl)amino)-3′,6′-dihydro-[3,4′-bipyridin]-1′(2′H)-yl)prop-2-en-1-one] | 0.0235 | 0.158
2 | C=CC(=O)N1CC=C(c2nccnc2Oc2ccc(C(F)(F)F)nc2)CC1 [Example 84, 1-(4-(3-((6-(trifluoromethyl)pyridin-3-yl)oxy)pyrazin-2-yl)-3,6-dihydropyridin-1(2H)-yl)prop-2-en-1-one] | 0.0014 | 0.0173
3 | C=CC(=O)N1CCN(c2nccnc2C(=O)c2ccc(C(F)(F)F)cc2)CC1 [Example 95, 1-(4-(3-(4-(trifluoromethyl)benzoyl)pyrazin-2-yl)piperazin-1-yl)prop-2-en-1-one] | 0.0013 | 0.012
4 | C=CC(=O)N1CCN(c2nccnc2Nc2ccc(C(F)(F)F)cc2)C[C@@H]1CCO [Example 17, (S)-1-(2-(2-hydroxyethyl)-4-(3-((4-(trifluoromethyl)phenyl)amino)pyrazin-2-yl)piperazin-1-yl)prop-2-en-1-one] | > 20 | 3.3
5 | C/C=C/C(=O)N1CCN(c2nccnc2Nc2ccc(C(F)(F)F)nc2)CC1 [Example 178, (E)-1-(4-(3-((6-(trifluoromethyl)pyridin-3-yl)amino)pyrazin-2-yl)piperazin-1-yl)but-2-en-1-one] | 0.0027 | 0.884
6 | C=CC(=O)N1CCN(c2nccnc2C(=O)N2CCC(C(F)(F)F)CC2)CC1 [Example 103, 1-(4-(3-(4-(trifluoromethyl)piperidine-1-carbonyl)pyrazin-2-yl)piperazin-1-yl)prop-2-en-1-one] | 0.166 | > 20
7 | C=CC(=O)N1CCC(c2nccnc2Nc2ccc(C(F)(F)F)nc2)CC1 [Example 61, 1-(4-(3-((6-(trifluoromethyl)pyridin-3-yl)amino)pyrazin-2-yl)piperidin-1-yl)prop-2-en-1-one] | 0.005 | 0.257
8 | C=C(F)C(=O)N1CCC(c2cnc(C)nc2Oc2ccc(C(F)(F)F)nc2)CC1 [Example 132, 2-fluoro-1-(4-(2-methyl-4-((6-(trifluoromethyl)pyridin-3-yl)oxy)pyrimidin-5-yl)piperidin-1-yl)prop-2-en-1-one] | 0.451 | 4.31
9 | C=CC(=O)N1CCN(c2nccnc2Nc2ccc(C(F)(F)F)cc2)CC1CC(N)=O (centres unmarked) [Example 20, 2-(1-acryloyl-4-(3-((4-(trifluoromethyl)phenyl)amino)pyrazin-2-yl)piperazin-2-yl)acetamide] | > 20 | 2.73
10 | C=CC(=O)N1CCC(n2nc(C(=O)c3ccc(C(F)(F)F)cc3)cc2C)CC1 [Example 165, 1-(4-(5-methyl-3-(4-(trifluoromethyl)benzoyl)-1H-pyrazol-1-yl)piperidin-1-yl)prop-2-en-1-one] | 0.0198 | 5
11 | C=C(F)C(=O)N1CCN(c2ncccc2Nc2ccc(C(F)(F)F)nc2)CC1 [Example 135, 2-fluoro-1-(4-(3-((6-(trifluoromethyl)pyridin-3-yl)amino)pyridin-2-yl)piperazin-1-yl)prop-2-en-1-one] | 0.41 | 1.67
12 | C=CC(=O)N1CCN(c2ncccc2C(O)c2ccc(C(F)(F)F)nc2)CC1 (centres unmarked) [Example 142, 1-(4-(3-(hydroxy(6-(trifluoromethyl)pyridin-3-yl)methyl)pyridin-2-yl)piperazin-1-yl)prop-2-en-1-one] | 0.0023 | 7.28
13 | N#C/C=C/C(=O)N1CCN(c2nccnc2Nc2ccc(C(F)(F)F)nc2)CC1 [Example 183, (E)-4-oxo-4-(4-(3-((6-(trifluoromethyl)pyridin-3-yl)amino)pyrazin-2-yl)piperazin-1-yl)but-2-enenitrile] | 0.0339 | 0.422
14 | C=C(C(=O)N1CCC(c2nccnc2Oc2ccc(C(F)(F)F)nc2)CC1)C(F)(F)F [Example 81, 2-(trifluoromethyl)-1-(4-(3-((6-(trifluoromethyl)pyridin-3-yl)oxy)pyrazin-2-yl)piperidin-1-yl)prop-2-en-1-one] | 0.0095 | 2.97
15 | C=CC(=O)N1CCN(c2nccnc2C(=O)N2CC3(CC(C(F)(F)F)C3)C2)CC1 [Example 101, 1-(4-(3-(6-(trifluoromethyl)-2-azaspiro[3.3]heptane-2-carbonyl)pyrazin-2-yl)piperazin-1-yl)prop-2-en-1-one] | 0.0134 | 3.76
16 | C=C(F)C(=O)N1CCC(c2cccnc2Oc2ccc(C(F)(F)F)nc2)CC1 [Example 156, 2-fluoro-1-(4-(2-((6-(trifluoromethyl)pyridin-3-yl)oxy)pyridin-3-yl)piperidin-1-yl)prop-2-en-1-one] | 0.0137 | 0.083
17 | C=CC(=O)N1CCC(c2cnc(C)nc2Oc2ccc(C(F)(F)F)nc2)CC1 [Example 131, 1-(4-(2-methyl-4-((6-(trifluoromethyl)pyridin-3-yl)oxy)pyrimidin-5-yl)piperidin-1-yl)prop-2-en-1-one] | 0.598 | 2.25
18 | C=CC(=O)N1CCN(c2nccnc2N(C)c2ccc(C(F)(F)F)cn2)CC1 [Example 42, 1-(4-(3-(methyl(5-(trifluoromethyl)pyridin-2-yl)amino)pyrazin-2-yl)piperazin-1-yl)prop-2-en-1-one] | 0.017 | 0.166
19 | C=C(CO)C(=O)N1CCN(c2nccnc2Nc2ccc(C(F)(F)F)cc2)CC1 [Example 186, 2-(hydroxymethyl)-1-(4-(3-((4-(trifluoromethyl)phenyl)amino)pyrazin-2-yl)piperazin-1-yl)prop-2-en-1-one] | > 20 | > 20
20 | C=C(F)C(=O)N1CCN(c2nccnc2Nc2cnc(C(F)(F)F)c(F)c2)CC1 [Example 51, 2-fluoro-1-(4-(3-((5-fluoro-6-(trifluoromethyl)pyridin-3-yl)amino)pyrazin-2-yl)piperazin-1-yl)prop-2-en-1-one] | 0.0067 | 0.331
21 | N#C/C=C\C(=O)N1CCN(c2nccnc2Nc2ccc(C(F)(F)F)nc2)CC1 [Example 184, (Z)-4-oxo-4-(4-(3-((6-(trifluoromethyl)pyridin-3-yl)amino)pyrazin-2-yl)piperazin-1-yl)but-2-enenitrile] | 0.164 | 1.45
22 | C#CCN(CCOc1nccnc1Nc1ccc(C(F)(F)F)cc1)C(=O)C=C [Example 193, N-(prop-2-yn-1-yl)-N-(2-((3-((4-(trifluoromethyl)phenyl)amino)pyrazin-2-yl)oxy)ethyl)acrylamide] | 0.203 | > 20
23 | C=CC(=O)N1CCC(n2ccc(C(=O)c3ccc(C(F)(F)F)cc3)n2)CC1 [Example 163, 1-(4-(3-(4-(trifluoromethyl)benzoyl)-1H-pyrazol-1-yl)piperidin-1-yl)prop-2-en-1-one] | 10 | 5
24 | C=C(COC(C)=O)C(=O)N1CCN(c2nccnc2Nc2ccc(C(F)(F)F)cc2)CC1 [Example 187, 2-(4-(3-((4-(trifluoromethyl)phenyl)amino)pyrazin-2-yl)piperazine-1-carbonyl)allyl acetate] | 36.6 | 7.41
25 | C=C(F)C(=O)N1CCN(c2nc(C)c(C)nc2Nc2ccc(C(F)(F)F)nc2)CC1 [Example 114, 1-(4-(5,6-dimethyl-3-((6-(trifluoromethyl)pyridin-3-yl)amino)pyrazin-2-yl)piperazin-1-yl)-2-fluoroprop-2-en-1-one] | 0.0044 | 0.072
